Assay results reported in patent US20100062059A1, “S-Nitrosothiols Containing Composition for the Treatment of Fatty Liver Diseases, Obesity and Other Diseases Associated with the Metabolic Syndrome and the Use of Such Compositions” (PROTAGEN AKTIENGESELLSCHAFT, priority 2006, published 2010).

Columns and labels:
[1] = test system: Wistar rats with hepatic steatosis induced by a choline-deficient diet; assay: Hydroperoxide (LOOH) concentration in the liver of rats with diet-induced hepatic steatosis; assay type: in vivo; settings: control group 3.2±0.4
Description: Wistar rats with hepatic steatosis induced by a choline-deficient diet were assigned to three groups to perform the tests with the administration of S-nitroso-N-acetylcysteine (SNAC), which is one of the active principles of the present invention, and to evaluate the concentration of hydroperoxides (LOOH) in the liver.
A first group of animals, group 1, was treated with a solution of S-nitroso-N-acetylcysteine, which was administrated orally to the animals at a dose of 1.4 mg/kg/day. A second group of animals, group 2, was treated with N-acetylcysteine (NAC), which was also administrated orally to the animals at a dose of 7.0 mg/kg/day.

soy lipoxigenase (SLO) = assay: Linoleic acid (LA) peroxidation catalyzed by soy lipoxigenase, absorbance at 234 nm; assay type: biochemical
Description: This referred effect may be shown by the analysis of two kinetic parameters: initial velocity and extension of the peroxidation reaction until the chemical equilibrium is reached. Such parameters were analyzed by ultraviolet spectrophotometry and the kinetic curves (a′, b′, c′ and d′) were obtained from absorbance variation monitored though the band with peak at 234 nm at a preferential temperature of 37° C. This band value is characteristic for combined dienes and may, therefore, act as LA peroxidation marker. For this Example, the first curve (a′) refers to a sample of linoleic acid whose peroxidation was catalyzed by incubation with soy lipo-oxygenase at a preferential concentration of 0.056 μmol/L; the second curve (b′) refers to a sample of linoleic acid whose peroxidation was catalyzed by incubation of the linoleic acid with a mixture of soy lipo-oxygenase in the presence of NAC at a preferential concentration of 560 μmol/L; the third curve (c′) refers to a sample of linoleic acid whose peroxidation was catalyzed by incubation of soy Lipo-oxygenase in the presence of SNAC at a preferential concentration of 56 μmol/L; and the fourth curve (d′) refers to a sample of linoleic acid whose peroxidation was catalyzed by incubation of soy lipo-oxygenase in the presence of SNAC at a preferential concentration of 560 μmol/L. FIG. 3 illustrates the absorbance curves obtained for the groups of the present Example. The interpretation of the curves is given by the initial velocity, which corresponds to the inclination of the initial section of the curves within approximately 10 seconds, and the extension of the reaction, which corresponds to the absorbance values on the plateaus of the curves.

[2] = test system: human low density lipoprotein (LDL); assay: CuCl2-catalyzed oxidation of LDL suspension, fluorescence spectrophotometry; assay type: biochemical; settings: LDL 200 μg/mL, CuCl2 300 μmol/L, 15 hours, SNAC 300 μmol/L, pH 7.4
Description: For this example, approximately 15 mL of a human low density lipoprotein (LDL) suspension at a concentration of around 200 μg/mL, in phosphate buffer, pH 7.4, aerated PBS (in vitro) were previously prepared and initially divided into three parts. A first part (a) with approximately 5 mL consisting of the previously prepared suspension solely; a second part (b) with approximately 5 mL, consisting of the LDL suspension incubated in a CuCl2 solution at a preferential concentration of 300 μmol/L for a period of around 15 hours; and a third part (c) with approximately 5 mL, consisting of the LDL suspension incubated in a CuCl2 solution at a preferential concentration of 300 μmol/L for a period of around 15 hours, in the presence of SNAC at a preferential concentration of 300 μmol/L.
A sample of each part was submitted to fluorescence spectrophotometry. FIG. 2 features the emission spectrum for the analyzed samples. […] The 410- and 440-nm emission peaks in the LDL suspension fluorescence spectrum correspond to the formation of a Schiff base adduct between the lipid oxidation products contained in the LDL particles (mainly the malondialdehyde [MDA]) and the free amino groups on LDL apolipoprotein (mainly apo-B-100), and are known as LDL oxidation markers.

[3] = test system: Rats fed a choline-deficient diet; assay: Liver histology (hematoxylin and eosin) of rats fed a choline-deficient diet; assay type: in vivo; settings: control: moderate macrovacuolar and microvacuolar steatosis in the periportal zone
Text: Rats fed a choline-deficient diet were selected to compose the Control Group when compared to SNAC-treated rats. Hematoxylin and eosin-stained histological sections of hepatic tissue were examined under optical microscopy, as shown on FIGS. 5A and 5B.

ob/ob mice = assay: Liver histology (hematoxylin and eosin) of ob/ob mice on MCD or hyperlipidemic diet; assay type: in vivo
Text: For the Example 4, ob/ob mice were selected. A first group of mice was fed a methionine/choline-deficient diet (Group MCD) and a second group of mice was fed a hyperlipidemic diet (Group H).
Animals were selected from both groups and hematoxylin and eosin-stained histological sections of the hepatic tissue of these animals were obtained and examined under optical microscopy.
Other animals selected from both groups of mice, Group MCD and Group H, were submitted to a 30-day treatment consisting of SNAC administration. After the 30th day, hematoxylin and eosin-stained histological sections of the hepatic tissue of these animals were obtained and examined under optical microscopy.
The remaining animals in Groups H and MCD were maintained on these diets up the 60th day and were put on SNAC administration from the 31st day on. After the 60th day of treatment, hematoxylin and eosin-stained histological sections of the hepatic tissue of these animals were obtained and examined under optical microscopy.

[4] = Body mass variation of animals on MCD or hyperlipidemic diet; assay type: in vivo; settings: SNAC by gavage, four weeks
Text: Data are expressed as means±standard deviation.

[5] = NAC 560 μmol/L, LA 18.76 μmol/L, SLO 0.056 μmol/L, 37° C., curve b′
[6] = SNAC 56 μmol/L, reduction compared with NAC 560 μmol/L, curve c′

Structure (SMILES) | hydroperoxide concentration in the liver ([1]; group 2, oral, 7.0 mg/kg/day) | extension of the LA peroxidation reaction (soy lipoxigenase (SLO); [5]) | initial velocity of the LA peroxidation reaction (soy lipoxigenase (SLO); [5]) | hydroperoxide concentration in the liver ([1]; group 1, oral, 1.4 mg/kg/day) | 410 and 440 nm emission peaks (LDL oxidation markers) [2] | extension of the LA peroxidation reaction (soy lipoxigenase (SLO); [6]) | initial velocity of the LA peroxidation reaction (soy lipoxigenase (SLO); [6]) | extension of the LA peroxidation reaction (soy lipoxigenase (SLO); SNAC 560 μmol/L, curve d′) | initial velocity of the LA peroxidation reaction (soy lipoxigenase (SLO); SNAC 560 μmol/L, curve d′) | histological characteristics of hepatic tissue [3] | histological characteristics of the liver (ob/ob mice; Group H, diet concomitantly with 30-day SNAC administration) | histological characteristics of the liver (ob/ob mice; Group H, diet to 60th day, SNAC from the 31st to the 60th day) | histological characteristics of the liver (ob/ob mice; Group MCD, diet concomitantly with 30-day SNAC administration) | histological characteristics of the liver (ob/ob mice; Group MCD, diet to 60th day, SNAC from the 31st to the 60th day) | body mass increase ([4]; group H (untreated 28% increase)) | body mass increase ([4]; group MCD)
CC(=O)N[C@@H](CS)C(=O)O [NAC, N-acetylcysteine, reference compound] | 0.7±0.2 nmol/g protein | reduced the extension | reduced the extension and velocity |  |  |  |  |  |  |  |  |  |  |  |  | 
CC(=O)N[C@@H](CSN=O)C(=O)O [SNAC, S-nitroso-N-acetylcysteine] |  |  |  | 0.3±0.1 nmol/g protein | blockage of the increase of 410 and 440 nm peaks | reduction is more accentuated | reduction is more accentuated | reduction is considerably much pronounced | reduction is considerably much pronounced | normal liver in the periportal zone | consistent with normal livers | consistent with those of normal livers | consistent with normal livers | consistent with those of normal livers | remarkable reduction of body mass increase | practically eliminated the body mass increase
